Test system: inducible nitric oxide synthase (iNOS) in liver tissue
Assay: iNOS immunostaining and digital morphometry in liver tissue, STAM mouse model of steatohepatitis
Type: in vivo
Details: STAM mice
Method: The experimental model used in this example is the mouse in which diabetes was induced and a high fat diet was administered, a model that has been called STAM mice. Diabetes is induced immediately following birth with a single injection of streptozotocin and then four weeks later the mice are started on a high fat diet. This is a proven chronic inflammatory model in which the mice consistently develop steatohepatitis with hepatocyte fat accumulation, evidence of hepatocyte toxicity, portal and lobular inflammatory infiltrates, peri-sinusoidal fibrosis, advanced fibrosis with nodule formation, cirrhosis, and ultimately hepatocellular carcinoma in a certain percentage of animals.
GR-MD-02, produced as described in Example 1, was given in a dose of 60 mg/kg twice weekly intravenously for four (4) weeks starting at week 9 after initiation of the model through week 12.
GR-MD-02, produced as described in Example 1, was also given in a dose of 120 mg/kg, 60 mg/kg, 30 mg/kg, 10 mg/kg once weekly intravenously for six weeks at the each of the starting at week six of the model and ending at week 12.

In the case of galacto-rhamnogalacturonate [GR-MD-02], the “quantification of iNOS immunoreactivity (FIG. 3)” value (“quantification … (FIG. 3)” below) (10 mg/kg once weekly intravenously for six weeks) is reported as “statistically significant reductions”, the “quantification … (FIG. 3)” value (30 mg/kg once weekly intravenously for six weeks) is reported as “statistically significant reductions” and the “quantification of iNOS immunoreactivity (FIG. 1B)” value (60 mg/kg twice weekly intravenously for 4 weeks, week 9 through week 12) is reported as “statistically significant reduction”. For the same substance, the “amount of iNOS detected in liver tissue (FIG. 1A)” value (60 mg/kg twice weekly intravenously for 4 weeks, week 9 through week 12, vs vehicle-treated control) was “markedly reduced”, the “amount of iNOS detected in liver tissue (FIG. 2)” value (10, 30, 60 or 120 mg/kg once weekly intravenously for six weeks, week 6 to week 12, vs vehicle-treated control) was “reduced” and the “quantification … (FIG. 3)” value (various once weekly intravenous doses (10-120 mg/kg) for six weeks) was “reduction of iNOS immunoreactivity”.

Source: patent publication US9763974B2, “Galacto-rhamnogalacturonate compositions for the treatment of diseases associated with elevated inducible nitric oxide synthase” (Galectin Therapeutics, Inc., priority 2012, dated 2017)
